The test system of experiment [1] is HCV sub-genomic replicon, GS4.3. The experiment can be described thus: Quantitation by ELISA of NPTII in the HCV sub-genomic replicon, GS4.3, Section C. It is filed as cell-based. Particulars: Hepatitis C virus; GS4.3 cells, 72 h incubation; read-out: EC50. From the text:
Quantitation by ELISA of the selectable marker protein, Neomycin phosphotransferase II (NPTII) in the HCV Sub-Genomic Replicon, GS4.3
The HCV sub-genomic replicon (1377/NS3-3′, accession No. AJ242652), stably maintained in HuH-7 hepatoma cells, was created by Lohmann et al. Science 285: 110-113 (1999). The replicon-containing cell culture, designated GS4.3, was obtained from Dr. Christoph Seeger of the Institute for Cancer Research, Fox Chase Cancer Center, Philadelphia, Pa.
GS4.3 cells were maintained at 37° C., 5% CO2, in DMEM (Gibco 11965-092) supplemented with L-glutamine 200 mM (100×) (Gibco25030-081), non-essential amino acids (NEAA)(Biowhittaker 13-114E), heat-inactivated (HI) Fetal Bovine Serum(FBS)(Hyclone SH3007.03) and 750 μg/ml geneticin (G418)(Gibco 10131-035). Cells were sub-divided 1:3 or 4 every 2-3 days.
24 h prior to the assay, GS4.3 cells were collected, counted, and plated in 96-well plates (Costar 3585) at 7500 cells/well in 100 μl standard maintenance medium (above) and incubated in the conditions above. To initiate the assay, culture medium was removed, cells were washed once with PBS (Gibco 10010-023) and 90 μl Assay Medium (DMEM, L-glutamine, NEAA, 10% HI FBS, no G418) was added. Inhibitors were made as a 10× stock in Assay Medium, (3-fold dilutions from 10 μM to […] final concentration, final DMSO concentration 1%), 10 μl were added to duplicate wells, plates were rocked to mix, and incubated as above for 72 h.
An NPTII Elisa kit was obtained from AGDIA, Inc. (Compound direct ELISA test system for Neomycin Phosphotransferase II, PSP 73000/4800). Manufacturer's instructions were followed, with some modifications. 10×PEB-1 lysis buffer was made up to include 500 μM PMSF (Sigma P7626, 50 mM stock in isopropanol). After 72 h incubation, cells were washed once with PBS and 150 μl PEB-1 with PMSF was added per well. Plates were agitated vigorously for 15 minutes, room temperature, then frozen at −70° C. Plates were thawed, lysates were mixed thoroughly, and 100 μl were applied to an NPTII Elisa plate. A standard curve was made. Lysate from DMSO-treated control cells was pooled, serially diluted with PEB-1 with PMSF, and applied to duplicate wells of the ELISA plate, in a range of initial lysate amount of 150u1-2.5 ul. In addition, 100 μl buffer alone was applied in duplicate as a blank. Plates were sealed and gently agitated at room temperature for 2 h. Following capture incubation, the plates were washed 5×300 μl with PBS-T (0.5% Tween-20, PBS-T was supplied in the ELISA kit). For detection, a 1× dilution of enzyme conjugate diluent MRS-2 (5×) was made in PBS-T, into which 1:100 dilutions of enzyme conjugates A and B were added, as per instructions. Plates were resealed, and incubated with agitation, covered, room temperature, for 2 h. The washing was then repeated and 100 μl of room temperature TMB substrate was added. After approximately 30 minutes incubation (room temperature, agitation, covered), the reaction was stopped with 50 μl 3M sulfuric acid. Plates were read at 450 nm on a Molecular Devices Versamax plate reader.
Inhibitor effect was expressed as a percentage of DMSO-treated control signal, and inhibition curves were calculated using a 4-parameter equation: y=A+((B−A)/(1+((C/x)^D))), where C is half-maximal activity or EC50.
Background: An ELISA detects its analyte on a solid surface through an enzyme-linked reagent.

In the next experiment the target is T1, NS3-NS4 protease (Hepatitis C virus genotype 1a, UniProt P27958).
T1 construct: Recombinant E. coli or Baculovirus full-length NS3 was diluted to 3.33 μM with assay buffer; made in house; host or cells: E. coli or baculovirus (BV) system
T1 sequence (P27958 1027-1657): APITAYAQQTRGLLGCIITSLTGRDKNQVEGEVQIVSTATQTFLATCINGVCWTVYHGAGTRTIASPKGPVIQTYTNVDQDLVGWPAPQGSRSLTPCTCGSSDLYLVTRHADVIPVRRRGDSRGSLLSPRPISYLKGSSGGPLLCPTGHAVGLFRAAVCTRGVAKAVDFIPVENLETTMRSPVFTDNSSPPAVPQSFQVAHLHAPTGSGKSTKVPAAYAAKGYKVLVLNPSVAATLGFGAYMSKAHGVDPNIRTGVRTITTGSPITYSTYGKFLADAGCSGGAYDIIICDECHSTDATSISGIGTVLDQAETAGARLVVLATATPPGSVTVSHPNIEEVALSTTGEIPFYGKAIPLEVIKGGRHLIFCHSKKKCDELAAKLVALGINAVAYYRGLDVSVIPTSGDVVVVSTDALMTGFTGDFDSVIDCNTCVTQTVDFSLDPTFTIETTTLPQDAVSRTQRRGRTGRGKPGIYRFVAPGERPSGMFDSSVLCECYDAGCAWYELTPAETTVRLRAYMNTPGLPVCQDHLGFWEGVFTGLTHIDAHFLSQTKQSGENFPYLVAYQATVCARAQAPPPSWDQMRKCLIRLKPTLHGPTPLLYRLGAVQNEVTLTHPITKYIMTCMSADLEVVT
Nature of the experiment: NS3-NS4 protease assay / NS3 inhibition assay, Section C. It is filed as biochemical. Particulars: read-out: NS3-NS4 IC50. On the procedure: NS3 complex formation with NS4A-2.
Recombinant E. coli or Baculovirus full-length NS3 was diluted to 3.33 μM with assay buffer and transfered material to an eppendorf tube and place in water bath in 4° C. refrigerator. The appropriate amount of NS4A-2 to 8.3 mM in assay buffer was added to equal the volume of NS3 in step 2.1.1 (conversion factor −3.8 mg/272 μL assay buffer). The material was transferred to an eppendorf tube and place in water bath in 4° C. refrigerator.
After equilibration to 4° C., equal volumes of NS3 and NS4A-2 solutions were combined in an eppendorf tube, mix gently with a manual pipettor, and incubate mixture for 15 minutes in the 4° C. water bath. Final concentrations in the mixture are […] NS3, 4.15 mM NS4A-2 (2485-fold molar excess NS4A-2).
After 15 minutes at 4° C., the NS3/NS4A-2 eppendorf tube was removed and place it in a room temperature water bath for 10 minutes. NS3/NS4A-2 was alliquoted at appropriate volumes and store at −80° C. (E. coli NS3 run at 2 nM in assay, aliquot at 25 μL. BV NS3 run at 3 nM in assay, aliquot at 30 μL).
Step 2.2.5. Sample compounds were dissolved to 10 mM in DMSO then diluted to 2.5 mM (1:4) in DMSO.
Step 2.2.6. The E. coli. NS3/NS4A-2 was diluted to 4 nM NS3 (1:417.5 of […] stock−18 μL 1.67 μM stock+7497 μL assay buffer). The BV NS3/NS4A-2 was diluted to 6 nM NS3 (1:278.3 of 1.67 μM stock−24 μL 1.67 μM stock+6655 μL assay buffer).
Step 2.2.7. Using the manual multichannel pipettor, and being careful not to introduce bubbles into the plate, 50 μL assay buffer were added to wells A01-H01 of a black Costar 96-well polypropylene storage plate.
Step 2.2.8. Using the manual multichannel pipettor, and being careful not to introduce bubbles into the plate, 50 μL of diluted NS3/NS4A-2 from step 2.2.6 were added to wells A02-H12 of plate in step 2.2.7.
Step 2.2.9. Using the manual multichannel pipettor, and being careful not to introduce bubbles into the plate, 25 μL of the wells in drug dilution plate in step 2.2.5 were transferred to corresponding wells in assay plate in step 2.2.8. The tips on multichannel pipettor were changed for each row of compounds transferred.
Step 2.2.10. Using the manual multichannel pipettor, and being careful not to introduce bubbles into the plate, the contents of the wells from the assay plate in step 2.2.9 were mixed by aspirating and dispensing 35 μL of the 75 μL in each well five times. The tips on the multichannel pipettor were changed for each row of wells mixed.
Step 2.2.11. The plate was covered with a polystyrene plate lid, and the plate from step 2.2.10 containing NS3 protease and sample compounds was pre-incubated 10 minutes at room temperature.
While the plate from step 2.2.11 was pre-incubating, the RETS1 substrate was diluted in a 15 mL polypropylene centrifuge tube. The RETS1 substrate was diluted to 8 μM (1:80.75 of 646 μM stock−65 μL 646 μM stock+5184 μL assay buffer).
After the plate in step 2.2.11 was done pre-incubating, and using the manual multichannel, 25 μL of substrate were added to all wells on the plate. The contents of the wells of plate were quickly mixed, as in step 2.2.10, but mixing 65 μL of the 100 μL in the wells.
The plate was read in kinetic mode on the Molecular Devices SpectraMax Gemini XS plate reader. Reader settings: Read time: 30 minutes, Interval: 36 seconds, Reads: 51, Excitation λ: 335 nm, Emission λ: 495 nm, cutoff: 475 nm, Automix: off, Calibrate: once, PMT: high, Reads/well: 6, Vmax pts: 21 or 28/51 depending on length of linearity of reaction.
IC50s were determined using a four parameter curve fit equation, and converted to Ki's using the following Km's:
where Ki=IC50/(1+[S]/Km))

Bounds are passed on as bounds.

Consider `CC(C)(C)OC(=O)N[C@H]1CCCCC/C=C\[C@@H]2C[C@@]2(C(=O)NS(=O)(=O)NC2CC2)NC(=O)[C@@H]2C[C@@H](OC(=O)N3Cc4ccccc4C3)CN2C1=O` [Compound 102], for which the EC50 in experiment [1] is less than 100 nM. In addition, the IC50 on NS3-NS4 protease was less than 100 nM.

In the case of `COc1ccc(NS(=O)(=O)NC(=O)[C@@]23C[C@H]2/C=C\CCCCC[C@H](NC(=O)OC(C)(C)C)C(=O)N2C[C@H](OC(=O)N4Cc5ccccc5C4)C[C@H]2C(=O)N3)cc1` [Compound 129, (1S,4R,6S,14S,18R)-1,3-Dihydro-isoindole-2-carboxylic acid 14-tert-butoxycarbonylamino-4-(4-methoxyphenylaminosulfonyl-aminocarbonyl)-2,15-dioxo-3,16-diaza-tricyclo[14.3.0.0^4,6]nonadec-7-en-18-yl ester], the EC50 in experiment [1] is less than 100 nM. Moreover, the IC50 on NS3-NS4 protease was less than 100 nM.

Turning to `CC(C)(C)OC(=O)N[C@H]1CCCCC/C=C\[C@@H]2C[C@@]2(C(=O)NS(=O)(=O)NC2CC2)NC(=O)[C@@H]2C[C@@H](OC(=O)N3Cc4ccc(Cl)cc4C3)CN2C1=O` [Compound 114], the EC50 in experiment [1] was less than 100 nM. Besides, the IC50 on NS3-NS4 protease was less than 100 nM.

For `CC(C)(C)OC(=O)N[C@H]1CCCCC/C=C\[C@@H]2C[C@@]2(C(=O)NS(=O)(=O)N2CCNCC2)NC(=O)[C@@H]2C[C@@H](OC(=O)N3Cc4ccccc4C3)CN2C1=O` [Compound 120, (1S,4R,6S,14S,18R)-1,3-Dihydro-isoindole-2-carboxylic acid 14-tert-butoxycarbonylamino-4-(piperazine-1-sulfonyl-aminocarbonyl)-2,15-dioxo-3,16-diaza-tricyclo[14.3.0.0^4,6]nonadec-7-en-18-yl ester], at NS3-NS4 protease, the half-maximal inhibitory concentration (IC50) is less than 100 nM.

With `CC(C)(C)OC(=O)N[C@H]1CCCCC/C=C\[C@@H]2C[C@@]2(C(=O)NS(=O)(=O)NC2(C#N)CC2)NC(=O)[C@@H]2C[C@@H](OC(=O)N3Cc4ccccc4C3)CN2C1=O` [Compound 123, (1S,4R,6S,14S,18R)-1,3-Dihydro-isoindole-2-carboxylic acid 14-tert-butoxycarbonylamino-4-(N-(1-cyanocyclopropyl)aminosulfonyl-aminocarbonyl)-2,15-dioxo-3,16-diaza-tricyclo[14.3.0.0^4,6]nonadec-7-en-18-yl ester], at NS3-NS4 protease, the 50% inhibitory concentration (IC50) was less than 100 nM.

On to `CC(C)(C)OC(=O)N[C@H]1CCCCC/C=C\[C@@H]2C[C@@]2(C(=O)NS(=O)(=O)N2CCCC2)NC(=O)C2C[C@@H](OC(=O)N3CCc4ccccc4C3CN3CCOCC3)CN2C1=O` (stereo partly drawn) [Compound 111, (1S,4R,6S,14S,18R)-1-Morpholine-4-ylmethyl-3,4-dihydro-1H-isoquinoline-2-carboxylic acid 14-tert-butoxycarbonylamino-2,15-dioxo-4-(pyrrolidine-1-sulfonylaminocarbonyl)-3,16-diaza-tricyclo[14.3.0.0^4,6]nonadec-7-en-18-yl ester], for which the IC50 at NS3-NS4 protease is less than 100 nM.

Take `CC(C)(C)OC(=O)N[C@H]1CCCCC/C=C\[C@@H]2C[C@@]2(C(=O)NS(=O)(=O)N2CCOCC2)NC(=O)[C@@H]2C[C@@H](OC(=O)N3CCc4ccccc4C3CN3CCCCC3)CN2C1=O` (stereo partly drawn) [Compound 110, (1S,4R,6S,14S,18R)-1-Piperidin-1-ylmethyl-3,4-dihydro-1H-isoquinoline-2-carboxylic acid 14-tert-butoxycarbonylamino-2,15-dioxo-4-(morpholino-sulfonylaminocarbonyl)-3,16-diaza-tricyclo[14.3.0.0^4,6]nonadec-7-en-18-yl ester]: at NS3-NS4 protease, the IC50 was less than 1000 nM.

Regarding `CC(C)(C)OC(=O)N[C@H]1CCCCC/C=C\[C@@H]2C[C@@]2(C(=O)NS(=O)(=O)Nc2nccs2)NC(=O)[C@@H]2C[C@@H](OC(=O)N3Cc4ccccc4C3)CN2C1=O` [Compound 105, (1S,4R,6S,14S,18R)-1,3-Dihydro-isoindole-2-carboxylic acid 14-tert-butoxycarbonylamino-4-(thiazol-2-ylaminosulfonylaminocarbonyl)-2,15-dioxo-3,16-diaza-tricyclo[14.3.0.0^4,6]nonadec-7-en-18-yl ester], the IC50 on NS3-NS4 protease was less than 100 nM.

In the case of `CC(C)(C)OC(=O)N[C@H]1CCCCC/C=C\[C@@H]2C[C@@]2(C(=O)NS(=O)(=O)N2CCCC2)NC(=O)C2C[C@@H](OC(=O)NC(CN3CCOCC3)c3ccccc3)CN2C1=O` (stereo partly drawn) [Compound 112, (1S,4R,6S,14S,18R)-(2-Morpholin-4-yl-1-phenyl-ethyl)-carbamic acid 14-tert-butoxycarbonylamino-2,15-dioxo-4-(pyrrolidine-1-sulfonylaminocarbonyl)-3,16-diaza-tricyclo[14.3.0.0^4,6]nonadec-7-en-18-yl ester], the half-inhibitory concentration (IC50) on NS3-NS4 protease was less than 100 nM.

The term EC50 denotes the midpoint of the concentration-response curve. Broadly, the IC50 is the point on the concentration scale where inhibition reaches its midpoint.

Values taken from patent US7491794B2, “Macrocyclic compounds as inhibitors of viral replication” (Intermune, Inc., priority 2003, dated 2009).
